Tests used:
Type in all cases: cell-based, human
dedifferentiated ATSC [1] = test: Colony formation with inhibitor treatment; conditions: dedifferentiated ATSC vs non-treated experimental group; similar to control group; FIG. 10
Procedure: The inventors conducted following experiment to confirm the actual growth of ATSC treated with hypoxia/DHP-derivative by the activity of Rex-1 and growth-related signal protein which was confirmed at Example 7-1. To be specific, cells of control group and cells of experimental group treated with HPD98059, SB203580 or AG490, or not treated were prepared, and measured for colony formation. The result is illustrated in FIG. 10.

dedifferentiated ATSC [2] = test: Western blotting of growth-related signal proteins with inhibitor treatment; conditions: FIG. 9a
Excerpt: The inventors conducted following experiment to confirm the expression pattern of growth-related signal protein and Rex-1 in ATSC treated with hypoxia/DHP-derivative. To be specific, the expression of P-Jak2 (Phosphorylated-Janus kinase 2) and P-Stat3 (Phosphorylated-signal transducer and activator of transcription3) was observed by Western blotting using anti-P-Jak2 antibody and anti-P-Stat3 antibody in the same manner explained above in Examples 2 and 3 in cells of control group not treated with AG490 (Jak2 inhibitor, Sigma) and in cells of experimental group not treated with AG490 or treated with 20 μM or 30 μM. The expression of p-STAT3 and STAT3 was observed by Western blotting using anti-p-STAT3 antibody and anti-Stat3 antibody in the same manner of the Examples 2 and 3 in a control group not treated with AG490 and experimental group treated with hypoxia/DHP-derivative for 6 hours and then treated or not treated with AG490. The expression of p-MEK (Phosphorylated-Mitogen-activated Protein/ERK Kinase), MEK, p-ERK (Phosphorylated-Extracellular signal-regulated kinases), ERK, C-myc, p-STAT3 and STAT3 proteins was observed by Western blotting in the same manner of the Examples 2 and 3 in control group not treated with PD98059 (MEX inhibitor, Sigma) and experimental group treated with hypoxia/DHP-derivative for 6 hours and then treated or not treated with PD98059. The expression of p-P38, P38, P53 and P21 protein was observed by Western blotting in the same manner of Examples 2 and 3 in control group not treated with SB203580 (P38MAPK inhibitor, Sigma) and experimental group treated with hypoxia/DHP-derivative for 6 hours and then treated or not treated with SB203580. The antibodies to each protein were purchased from Santa Cruz. The result is illustrated in FIG. 9a.

dedifferentiated ATSC [3] = test: Real time PCR of stemness and proliferation genes with inhibitor treatment; conditions: FIG. 9b; for expression of Oct-4 / expression of REX1, SOX2, CDk1 and CDk2: dedifferentiated ATSC treated with inhibitor
Procedure: The expression of Rex1, CDk1 and Runx3 genes were observed by real time PCR in the same manner of the Examples 2 and 3 in cells of control group not treated with AG490 and cells of experimental group not treated with AG490 or treated with 20 μM or 30 μM. As for a quantitative control group, the expression of GAPDH (glyceraldehyde-3-phosphate dehydrogenase) was also observed.
Expressions of REX1, Oct-4, SOX2, CDk1 and CDk2 were observed by real time PCR in the same manner of Examples 2 and 3 in each of the following cases. ATSC were treated with hypoxia/DPH-derivative for 6 hours and then divided into cases including: i) sample treated with nothing; ii) sample treated with SB203580 only; iii) sample treated with PD98059 only; and iv) sample treated with SB203580 and PD98059. As for a quantitative control group, the expression of GAPDH was also confirmed. The result is illustrated in FIG. 9b.

dedifferentiated ATSC [4] = test: Cell migration with signal transmission inhibitors; conditions: dedifferentiated ATSC treated with inhibitor; FIG. 15
Procedure: In the developmental procedures, cell migration is considered to be critical for normal development. Accordingly, the inventors conducted experiment as explained below to confirm the in vitro migration activity of dedifferentiated ATSC. First, experimental group was cultured in a culture medium containing control cell group and DHP-derivative under hypoxia condition for 30 minutes or 6 hours and then cultured in low serum growth medium. The cultured cells were moved onto 6-transwell plate (8 μm pore size; Costar, U.S.A) coated with laminin (Chemicon, U.S.A). The respective cells were divided on an upper layer chamber, and cultured under 37° C., 5% carbon dioxide condition for 48 hours, during which the cells were left to migrate from the upper layer chamber to the lower layer chamber. The remaining, non-migrated cells were removed from the surface of the upper layer chamber and the migrated cells in the lower layer chamber were stained with Harris hematoxylin (Sigma Aldrich, U.S.A). Cells were counted from 20-selected areas for the respective cells.
The inventors conducted experiment to confirm the signal pathway that influences the in vitro migration of ATSC which were treated with hypoxia/DHP-derivative.

[5] = vs sample not treated with inhibitor

SMILES | cell proliferation (colony formation) (dedifferentiated ATSC [1]) | expression of P53 and P21 (dedifferentiated ATSC [2]; [5]) | phosphorylation of P38 (dedifferentiated ATSC [2]; [5]) | expression of Oct-4 (dedifferentiated ATSC [3]) | expression of REX1, SOX2, CDk1 and CDk2 (dedifferentiated ATSC [3]) | cell migration (dedifferentiated ATSC [4]) | expression of P-Jak2 and P-Stat3 (dedifferentiated ATSC [2]; higher concentration of AG490 (20 μM or 30 μM)) | expression of Rex′1, CDK1, CDK2, Nanog and Runx3 (dedifferentiated ATSC [3]; dedifferentiated ATSC, higher concentration of AG490) | expression of C-myc (dedifferentiated ATSC [2]; [5]) | phosphorylation of MEK (dedifferentiated ATSC [2]; [5])
C[S+]([O-])c1ccc(-c2nc(-c3ccncc3)c(-c3ccc(F)cc3)[nH]2)cc1 (stereo not drawn) [SB203580] | decreased cell proliferation | increased expression | decreased phosphorylation | not changed | decreased | noticeably decreased | – | – | – | –
N#C/C(=C/c1ccc(O)c(O)c1)C(=O)NCc1ccccc1 [AG490] | decreased cell proliferation | – | – | – | – | – | decreased expression | decreased expression | – | –
COc1cccc(-c2cc(=O)c3ccccc3o2)c1N [PD98059] | decreased cell proliferation | – | – | not changed | decreased | noticeably decreased | – | – | decreased expression | increased phosphorylation

Reference: US20120003186A1, “METHOD FOR DEDIFFERENTIATING ADIPOSE TISSUE STROMAL CELLS” (SNU R&DB FOUNDATION, priority 2010, published 2012)
